Test results as given in patent publication US20250129078A1, “ERBB2 INHIBITORS” (Cogent Biosciences, Inc., priority 2023, published 2025).

Key:
ErbB2 V777L = ErbB2 V777L (Homo sapiens (Human), UniProt P04626, V777L); test: ErbB enzyme assay (CisBio HTRF-KinEASE-TK), ErbB2 V777L; type: biochemical
Description: In vitro enzyme assays based on CisBio HTRF-KinEASE-TK technology were used to determine compound potencies. […] After another 1 h incubation at ambient temperature, the extent of substrate phosphorylation was determined using a PerkinElmer EnVision multimode plate reader via time-resolved fluorescence dual wavelength detection. The percent of control (POC) was calculated using the ratio of emission at […] to the emission at 620 nm. One hundred POC was determined using DMSO only controls (no test compounds present) and zero POC was determined using pre-quenched controls reactions. A 4-parameter logistic equation was fit to the POC values as a function of the test compound concentration and the IC50 value was determined as the point where the curve crossed 50 POC.

EGFR WT = EGFR WT (Homo sapiens (Human), UniProt P00533); test: ErbB enzyme assay (CisBio HTRF-KinEASE-TK), EGFR WT; type: biochemical; settings: ATP at Km (25 μM), 1 h incubation
Summary of the method: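 Three-fold DMSO serial dilutions were added to kinase reactions and incubated 1 h at room temperature. Quench used 62.5 nM Sa-XL665 plus 0.25×TK-Ab-Cryptate in detection buffer, followed by another 1 h. Substrate phosphorylation was then measured by dual-wavelength HTRF.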

Sequence of EGFR WT (P00533 25-1210): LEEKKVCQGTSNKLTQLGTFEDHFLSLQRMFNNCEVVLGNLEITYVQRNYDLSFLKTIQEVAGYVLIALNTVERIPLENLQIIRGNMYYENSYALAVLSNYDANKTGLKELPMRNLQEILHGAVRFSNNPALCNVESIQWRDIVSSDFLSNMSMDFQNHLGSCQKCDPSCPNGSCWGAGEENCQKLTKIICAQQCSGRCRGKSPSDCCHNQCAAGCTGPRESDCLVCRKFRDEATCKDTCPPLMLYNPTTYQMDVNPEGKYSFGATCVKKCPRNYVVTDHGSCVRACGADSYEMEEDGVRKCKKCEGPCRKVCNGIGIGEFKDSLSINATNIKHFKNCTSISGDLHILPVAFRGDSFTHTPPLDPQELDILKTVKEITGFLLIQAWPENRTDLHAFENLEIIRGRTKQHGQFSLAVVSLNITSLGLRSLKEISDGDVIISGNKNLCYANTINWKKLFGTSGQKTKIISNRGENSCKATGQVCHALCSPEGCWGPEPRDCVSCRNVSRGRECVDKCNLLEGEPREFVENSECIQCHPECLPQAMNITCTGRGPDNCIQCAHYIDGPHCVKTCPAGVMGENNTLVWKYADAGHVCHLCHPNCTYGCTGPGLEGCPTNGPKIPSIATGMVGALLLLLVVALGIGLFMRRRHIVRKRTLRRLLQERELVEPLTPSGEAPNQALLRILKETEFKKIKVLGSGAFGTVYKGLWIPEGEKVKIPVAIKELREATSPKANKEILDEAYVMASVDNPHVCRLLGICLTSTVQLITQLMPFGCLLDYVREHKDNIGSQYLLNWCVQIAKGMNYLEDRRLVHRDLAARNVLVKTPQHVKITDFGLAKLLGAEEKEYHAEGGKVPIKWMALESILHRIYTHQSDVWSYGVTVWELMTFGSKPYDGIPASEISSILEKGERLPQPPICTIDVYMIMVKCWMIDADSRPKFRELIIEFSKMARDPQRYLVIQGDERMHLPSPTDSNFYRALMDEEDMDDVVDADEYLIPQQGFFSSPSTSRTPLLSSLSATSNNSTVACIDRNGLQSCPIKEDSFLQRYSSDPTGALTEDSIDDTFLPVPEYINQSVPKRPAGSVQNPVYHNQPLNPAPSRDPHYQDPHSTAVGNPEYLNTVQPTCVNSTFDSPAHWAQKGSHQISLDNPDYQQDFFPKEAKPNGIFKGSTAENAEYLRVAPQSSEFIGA
Sequence of ErbB2 V777L (P04626 23-1255 V777L): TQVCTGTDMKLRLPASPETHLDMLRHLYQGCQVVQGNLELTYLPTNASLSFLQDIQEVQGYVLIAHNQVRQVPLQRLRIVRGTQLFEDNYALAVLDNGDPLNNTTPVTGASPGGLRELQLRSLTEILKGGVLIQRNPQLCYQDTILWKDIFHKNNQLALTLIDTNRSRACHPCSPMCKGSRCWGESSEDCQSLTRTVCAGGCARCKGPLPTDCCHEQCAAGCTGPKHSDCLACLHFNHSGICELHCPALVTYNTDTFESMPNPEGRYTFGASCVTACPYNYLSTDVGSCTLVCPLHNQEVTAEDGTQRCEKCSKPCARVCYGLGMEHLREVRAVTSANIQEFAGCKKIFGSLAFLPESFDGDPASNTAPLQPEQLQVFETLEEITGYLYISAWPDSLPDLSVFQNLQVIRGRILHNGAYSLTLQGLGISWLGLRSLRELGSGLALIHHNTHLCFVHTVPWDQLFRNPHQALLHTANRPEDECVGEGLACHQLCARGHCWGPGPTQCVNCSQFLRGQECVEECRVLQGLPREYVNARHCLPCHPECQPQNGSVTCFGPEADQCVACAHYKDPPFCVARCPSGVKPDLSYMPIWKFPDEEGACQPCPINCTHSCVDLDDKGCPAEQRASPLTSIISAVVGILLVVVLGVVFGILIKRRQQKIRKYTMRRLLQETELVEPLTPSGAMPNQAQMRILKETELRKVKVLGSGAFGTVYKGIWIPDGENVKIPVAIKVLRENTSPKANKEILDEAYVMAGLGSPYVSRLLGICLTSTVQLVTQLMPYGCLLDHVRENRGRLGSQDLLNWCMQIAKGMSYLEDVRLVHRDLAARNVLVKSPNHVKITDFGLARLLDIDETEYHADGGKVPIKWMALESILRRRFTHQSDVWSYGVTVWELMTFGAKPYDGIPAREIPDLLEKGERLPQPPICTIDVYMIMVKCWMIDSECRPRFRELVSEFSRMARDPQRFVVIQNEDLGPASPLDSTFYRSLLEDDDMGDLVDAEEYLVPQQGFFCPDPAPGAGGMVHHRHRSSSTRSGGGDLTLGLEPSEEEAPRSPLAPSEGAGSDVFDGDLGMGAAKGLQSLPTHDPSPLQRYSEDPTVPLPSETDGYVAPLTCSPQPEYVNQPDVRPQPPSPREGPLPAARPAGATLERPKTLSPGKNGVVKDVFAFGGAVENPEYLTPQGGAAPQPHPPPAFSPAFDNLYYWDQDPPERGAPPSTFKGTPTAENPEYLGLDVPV

Structure (SMILES)	IC50 (ErbB2 V777L) [nM]	IC50 (EGFR WT) [nM]
C=CC(=O)N(C)CCN(C)c1ccc2ncnc(Nc3ccc(Oc4ccc5c(c4)nnn5C)c(C)c3)c2n1 [Compound 76, N-methyl-N-(2-(methyl(4-((3-methyl-4-((1-methyl-1H-benzo[d][1,2,3]triazol-5-yl)oxy)phenyl)amino)pyrido[3,2-d]pyrimidin-6-yl)amino)ethyl)acrylamide]	100 to 500	500 to 1000
C=CC(=O)N1C2CCC1CN(c1ccc3ncnc(Nc4cc(C)c(Oc5ccc6c(c5)nnn6C)cc4OC)c3n1)C2 [Compound 80, 1-(3-(4-((2-methoxy-5-methyl-4-((1-methyl-1H-benzo[d][1,2,3]triazol-5-yl)oxy)phenyl)amino)pyrido[3,2-d]pyrimidin-6-yl)-3,8-diazabicyclo[3.2.1]octan-8-yl)prop-2-en-1-one]	100 to 500	100 to 500
C=CC(=O)N1CCN(c2ccc3ncnc(Nc4ccc(Oc5cc(F)c6c(c5)nnn6C)c(C)c4F)c3n2)CC1 [Compound 91, 1-(4-(4-((2-fluoro-4-((7-fluoro-1-methyl-1H-benzo[d][1,2,3]triazol-5-yl)oxy)-3-methylphenyl)amino)pyrido[3,2-d]pyrimidin-6-yl)piperazin-1-yl)prop-2-en-1-one]	50 to 100	< 50
C=CC(=O)N1CCN(c2ccc3ncnc(Nc4cc(C)c(Oc5ccc6c(c5)nnn6C)cc4F)c3n2)CC1 [Compound 94, 1-(4-(4-((2-fluoro-5-methyl-4-((1-methyl-1H-benzo[d][1,2,3]triazol-5-yl)oxy)phenyl)amino)pyrido[3,2-d]pyrimidin-6-yl)piperazin-1-yl)prop-2-en-1-one]	50 to 100	100 to 500
C=CC(=O)N1CC2CC(C1)N2c1ccc2ncnc(Nc3ccc(Oc4ccc5c(c4)nnn5C)c(C)c3)c2n1 [Compound 96, 1-(6-(4-((3-methyl-4-((1-methyl-1H-benzo[d][1,2,3]triazol-5-yl)oxy)phenyl)amino)pyrido[3,2-d]pyrimidin-6-yl)-3,6-diazabicyclo[3.1.1]heptan-3-yl)prop-2-en-1-one]	100 to 500	100 to 500
C=CC(=O)N1CCN(c2ncc3ncnc(Nc4ccc(Oc5ccc6c(c5)nnn6C)c(C)c4)c3c2F)CC1 [Compound 102, 1-(4-(5-fluoro-4-((3-methyl-4-((1-methyl-1H-benzo[d][1,2,3]triazol-5-yl)oxy)phenyl)amino)pyrido[3,4-d]pyrimidin-6-yl)piperazin-1-yl)prop-2-en-1-one]	100 to 500	500 to 1000
C=CC(=O)N1CCN(c2ncc3ncnc(Nc4ccc(Oc5ccc6c(c5)nnn6C)c(C)c4F)c3c2F)CC1 [Compound 103, 1-(4-(5-fluoro-4-((2-fluoro-3-methyl-4-((1-methyl-1H-benzo[d][1,2,3]triazol-5-yl)oxy)phenyl)amino)pyrido[3,4-d]pyrimidin-6-yl)piperazin-1-yl)prop-2-en-1-one]	100 to 500	100 to 500
C=CC(=O)N1CCN(c2ccc3ncnc(Nc4ccc(Oc5ccc6c(c5)nnn6C)c(C)c4)c3c2F)CC1 [Compound 104, 1-(4-(5-fluoro-4-((3-methyl-4-((1-methyl-1H-benzo[d][1,2,3]triazol-5-yl)oxy)phenyl)amino)quinazolin-6-yl)piperazin-1-yl)prop-2-en-1-one]	100 to 500	100 to 500
C=CC(=O)N1CCC(c2ccc3ncnc(Nc4ccc(Oc5ccc6c(c5)nnn6C)c(C)c4)c3n2)CC1 [Compound 108, 1-(4-(4-((3-methyl-4-((1-methyl-1H-benzo[d][1,2,3]triazol-5-yl)oxy)phenyl)amino)pyrido[3,2-d]pyrimidin-6-yl)piperidin-1-yl)prop-2-en-1-one]	100 to 500	100 to 500
C=CC(=O)N1CCCN(c2ncc3ncnc(Nc4ccc(Oc5cc(F)c6c(c5)ncn6C)c(C)c4F)c3n2)CC1 [Compound 112, 1-(4-(8-((2-fluoro-4-((7-fluoro-1-methyl-1H-benzo[d]imidazol-5-yl)oxy)-3-methylphenyl)amino)pyrimido[5,4-d]pyrimidin-2-yl)-1,4-diazepan-1-yl)prop-2-en-1-one]	50 to 100	< 50
C=CC(=O)N1CCN(c2ncc3ncnc(Nc4ccc(Oc5ccc6c(c5)nnn6C)c(CC)c4)c3n2)CC1 [Compound 114, 1-(4-(8-((3-ethyl-4-((1-methyl-1H-benzo[d][1,2,3]triazol-5-yl)oxy)phenyl)amino)pyrimido[5,4-d]pyrimidin-2-yl)piperazin-1-yl)prop-2-en-1-one]	100 to 500	100 to 500
C=CC(=O)N1CCN(c2ncc3ncnc(Nc4ccc(Oc5ccc6c(c5)nnn6C)c(C)c4)c3n2)C[C@@H]1CC [Compound 115, (S)-1-(2-ethyl-4-(8-((3-methyl-4-((1-methyl-1H-benzo[d][1,2,3]triazol-5-yl)oxy)phenyl)amino)pyrimido[5,4-d]pyrimidin-2-yl)piperazin-1-yl)prop-2-en-1-one]	500 to 1000	≥ 1000
C=CC(=O)N1CCN(c2ncc3ncnc(Nc4ccc(Oc5ccc6c(c5)nnn6C)c(C)c4)c3n2)C[C@@H]1C1CC1 [Compound 117, (S)-1-(2-cyclopropyl-4-(8-((3-methyl-4-((1-methyl-1H-benzo[d][1,2,3]triazol-5-yl)oxy)phenyl)amino)pyrimido[5,4-d]pyrimidin-2-yl)piperazin-1-yl)prop-2-en-1-one]	100 to 500	≥ 1000
C=CC(=O)N1CCN(c2ncc3ncnc(Nc4ccc(Oc5ccc6c(c5)nnn6C)c(C)c4)c3n2)C[C@H]1CC [Compound 119, (R)-1-(2-ethyl-4-(8-((3-methyl-4-((1-methyl-1H-benzo[d][1,2,3]triazol-5-yl)oxy)phenyl)amino)pyrimido[5,4-d]pyrimidin-2-y1)piperazin-1-yl)prop-2-en-1-one]	100 to 500	500 to 1000
C=CC(=O)NC1CCN(c2ncc3ncnc(Nc4ccc(Oc5ccc6c(c5)nnn6C)c(C)c4)c3n2)CC1 [Compound 123, N-(1-(8-((3-methyl-4-((1-methyl-1H-benzo[d][1,2,3]triazol-5-yl)oxy)phenyl)amino)pyrimido[5,4-d]pyrimidin-2-yl)piperidin-4-yl)acrylamide]	100 to 500	100 to 500
C=CC(=O)N1CC2(CC(N(C)c3ncc4ncnc(Nc5ccc(Oc6ccc7c(c6)nnn7C)c(C)c5)c4n3)C2)C1 [Compound 124, 1-(6-(methyl(8-((3-methyl-4-((1-methyl-1H-benzo[d][1,2,3]triazol-5-yl)oxy)phenyl)amino)pyrimido [5,4-d]pyrimidin-2-yl)amino)-2-azaspiro[3.3]heptan-2-yl)prop-2-en-1-one]	50 to 100	100 to 500
C=CC(=O)N(C)[C@H]1CCCN(c2ncc3ncnc(Nc4ccc(Oc5ccc6c(c5)nnn6C)c(C)c4)c3n2)C1 [Compound 127, (S)-N-methyl-N-(1-(8-((3-methyl-4-((1-methyl-1H-benzo[d][1,2,3]triazol-5-yl)oxy)phenyl)amino)pyrimido[5,4-d]pyrimidin-2-y1)piperidin-3-yl)acrylamide]	100 to 500	500 to 1000
C=CC(=O)N(C)[C@@H]1CCCN(c2ncc3ncnc(Nc4ccc(Oc5ccc6c(c5)nnn6C)c(C)c4)c3n2)C1 [Compound 129, (R)-N-methyl-N-(1-(8-((3-methyl-4-((1-methyl-1H-benzo[d][1,2,3]triazol-5-yl)oxy)phenyl)amino)pyrimido[5,4-d]pyrimidin-2-y1)piperidin-3-yl)acrylamide]	50 to 100	100 to 500
C=CC(=O)N1CCN(c2ncc3ncnc(Nc4ccc(Oc5cc6nnn(C)c6cn5)c(C)c4)c3n2)CC1 [Compound 132, 1-(4-(8-((3-methyl-4-((3-methyl-3H-[1,2,3]triazolo[4,5-c]pyridin-6-yl)oxy)phenyl)amino)pyrimido[5,4-d]pyrimidin-2-yl)piperazin-1-yl)prop-2-en-1-one]	100 to 500	100 to 500
C=CC(=O)N1CCN(c2ncc3ncnc(Nc4ccc(Oc5ccc6c(c5)nnn6CC)c(C)c4)c3n2)CC1 [Compound 133, 1-(4-(8-((4-((1-ethyl-1H-benzo[d][1,2,3]triazol-5-yl)oxy)-3-methylphenyl)amino)pyrimido[5,4-d]pyrimidin-2-y1)piperazin-1-yl)prop-2-en-1-one]	100 to 500	500 to 1000
C=CC(=O)N1C2CCC1CN(c1ncc3ncnc(Nc4ccc(Oc5cnc6c(c5)ncn6C)c(C)c4)c3n1)C2 [Compound 134, 1-(3-(8-((3-methyl-4-((3-methyl-3H-imidazo[4,5-b]pyridin-6-yl)oxy)phenyl)amino)pyrimido[5,4-d]pyrimidin-2-yl)-3,8-diazabicyclo[3.2.1]octan-8-yl)prop-2-en-1-one]	50 to 100	100 to 500
C=CC(=O)N1CCN(c2ncc3ncnc(Nc4ccc(Oc5cc6ncn(C)c6nc5C)c(C)c4)c3n2)CC1 [Compound 135, 1-(4-(8-((4-((3,5-dimethyl-3H-imidazo[4,5-b]pyridin-6-yl)oxy)-3-methylphenyl)amino)pyrimido[5,4-d]pyrimidin-2-yl)piperazin-1-yl)prop-2-en-1-one]	50 to 100	100 to 500
C=CC(=O)N1CCN(c2ncc3ncnc(Nc4ccc(Oc5cc6nnn(C)c6c(F)c5C)c(C)c4)c3n2)CC1 [Compound 137, 1-(4-(8-((4-((7-fluoro-1,6-dimethyl-1H-benzo[d][1,2,3]triazol-5-yl)oxy)-3-methylphenyl)amino)pyrimido[5,4-d]pyrimidin-2-yl)piperazin-1-yl)prop-2-en-1-one]	100 to 500	100 to 500
